Source: patent US20100150938A1, “METHODS AND COMPOSITIONS FOR REDUCING INFLAMMATION AND TREATING INFLAMMATORY DISORDERS” (UNIVERSITY OF MASSACHUSETTS, priority 2008, published 2010)
“Also recorded” adds a separate entry of the source. Non-standard residues stand in square brackets, D forms with d. Residues, ends and D or L forms follow the SMILES beside them. *: point of attachment. Sta = CC(C)C[C@H](N)[C@@H](O)CC(=O)O; Isovaleryl = CC(C)CC(=O)*; Cbz = O=C(OCc1ccccc1)*; CH2F = FC*

How the values were obtained:
caspase-1 [1] = test: Caspase-1 activation in microglia (FLICA, confocal microscopy, flow cytometry); type: cell-based, mouse; conditions: microglia, FLICA
Experimental: For assessment of microglia-induced neurotoxicity, CAD mouse neuronal cells^47 were seeded on poly-L-lysine coated glass cover slips and grown in F12/DMEM supplemented with ciprofloxacin (Cellgro, Manassas, Va.) and 10% fetal calf serum (Hyclone, Logan, Utah) for 24 h. Differentiation was induced by withdrawal of serum for 48 h Immortalized microglia from wildtype or caspase-1^−/− mice were added in serum free medium to obtain mixed neuronal/microglial cultures and immediately stimulated. 72 h after stimulation with Aβ or media, cells were fixed, stained for the neuron-specific marker TuJ-1 and microglial marker CD11b, and imaged by confocal microscopy (Leica SP2 AOBS). Caspase-1 activity in microglial cells was assessed using the caspase-1 FLICA™ kit (Immunochemistry Technologies, Bloomington, Minn.) according to the manufacturer's instructions.
For evaluation of lysosomal damage, cells were incubated with LysoTracker green (1:2000) for 30 min and stimulated as described. Lysosomal damage was defined as loss of LysoTracker fluorescence as assessed by flow cytometry. All flow cytometry experiments were performed on an LSRII cytometer (BD Biosciences), data were acquired by DIVA software (BD Biosciences) and analyzed with FlowJo software (Tree Star Inc., Ashland, Oreg.).
IL-1β maturation is controlled by caspase-1 after assembly of the inflammasome, a multi protein complex that activates pro-caspase-1. In order to test whether Aβ activates caspase-1, we measured levels of activated caspase-1 using a fluorescent cell permeable probe (FAM-YVAD-Fmk), which covalently binds only to activated caspase-1 (Fluorescent labeled Inhibitors of Caspases, FLICA)^14. […] Similar results were obtained in primary microglial cultures (FIG. 15c).

THP-1 cells = test: Lysosomal rupturing in THP-1 cells, IL-1β release; type: cell-based, human; conditions: PMA-differentiated THP-1 cells
Experimental: Cell culture supernatants were assayed for IL-1β using ELISA kits from BD Biosciences (Franklin Lakes, NJ) according to the manufacturer's instructions. To measure intracellular IL-1β, cells were washed and subjected to three freeze thaw cycles in assay diluent. PMA-differentiated THP-1 cells were incubated with hypertonic DMEM medium containing 10% polyethylene glycol (PEG) 1000, 1.4 M sucrose, 20 mM Hepes (pH 7.2) and 5% FCS for […] at 37° C. Cells were subsequently washed and incubated in hypotonic DMEM medium [DMEM: H2O (3:2)] for 2 min to induce lysosomal rupturing. Cells were then incubated in serum free DMEM for additional 4 hours.

mouse microglia = test: IL-1β release from LPS-primed mouse microglia (ELISA); type: cell-based; conditions: LPS-primed immortalized microglia
Experimental: For primary cultures, bone marrow-derived macrophages and microglia were isolated as described^42,43 and cultured in DMEM supplemented with L-glutamine, ciprofloxacin (Cellgro, Manassas, Va.) and 10% fetal calf serum (Hyclone, Logan, Utah) Immortalized macrophage and microglial cell lines were generated using J2 recombinant retrovirus (carrying v-myc and v-raf oncogenes)^44,45. Briefly, primary bone marrow cells were incubated in L929 conditioned medium for 3-4 days to induce macrophage differentiation. Cells were then infected with J2 recombinant retrovirus and maintained in culture until cells were growing in the absence of conditioned medium. Similarly, primary mixed glial cultures were cultured until fully confluent. After two consecutive infections with J2 retrovirus, cells were maintained in normal medium until growth of microglial cells in colonies was observed. The semi-adherent colonies of microglial cells were washed off and cultured in new flasks. […] Microglial cell lines form wild type (C57/BL6), Caspase-1^−/− and IL-IR^−/− mice as well as macrophage cell lines from wild type (C57BL6), NALP3 -, IPAF- and ASC-deficient mice were generated and used for experiments as indicated.
(§1) Stimulations were carried out in serum free DMEM medium. Microglial cells and macrophages were primed with 100 U/ml IFNγ (Griess assay, TNF ELISA, real-time quantitative PCR) or 100 ng/ml ultrapure LPS (IL-1β ELISA, FLICA, ASC-CFP microglia cell line assay, Western blot) 1-3 h prior to stimulation with Aβ, revAβ, zymosan, ATP or transfection with dAdT.
Cell culture supernatants were assayed for IL-1β and TNFα using ELISA kits from R&D Systems (Minneapolis, Minn.) according to the manufacturer's instructions. Nitric oxide was measured by Griess reaction of nitrites accumulated in the supernatants using chemicals from Sigma.

caspase-1 [2] = test: Caspase-1 cleavage/activation in mouse macrophages (Western blot p10); type: cell-based
Experimental: (§2) Bone marrow derived macrophages were generated as described (Severa, M et al. Journal of Biological Chemistry 281:26188-26195 (2006)). Human PBMCs were isolated by from whole blood of healthy volunteers by density gradient centrifugation. Lysis of red blood cells was performed using red blood cell lysis buffer (Sigma). Experiments in PBMCs and macrophages were carried out at a cell density of 2×10^6 cells/ml. All primary cells and cell lines except THP-1 cells were cultured in DMEM supplemented with L-glutamine, ciprofloxacin (Cellgro, Manassas, Va.) and 10% fetal calf serum (Hyclone, Logan, Utah). THP-1 cells were cultured in RPMI supplemented with 10% fetal calf serum (Hyclone), L-glutamine, sodium pyruvate (Cellgro), and ciprofloxacin. One day prior to stimulation, THP-1 cells were differentiated using 0.5 μM PMA for three hours, washed three times and plated for stimulation. All experiments that were performed for Western blot analysis were carried out in serum free DMEM medium. ATP stimulations were carried out at 5 mM one hour prior to harvesting supernatants.
Cell culture supernatants were precipitated by adding an equal volume of methanol and 0.25 volumes of chloroform, vortexed and centrifuged at 20.000×g for 10 min. The upper phase was discarded and 500 μl of methanol was added to the interphase. This mixture was centrifuged at 20.000×g for 10 min and the protein pellet dried at 55° C., resuspended in Laemmli buffer and boiled at 99° C. for 5 min. Samples were separated by SDS-PAGE (15%) and transferred onto nitrocellulose membranes. As indicated, blots were incubated with rabbit polyclonal antibody to anti murine caspase-1 p10 (sc-514, Santa Cruz Biotechnology, Santa Cruz, Calif.), rabbit polyclonal anti human caspase-1 p10 (sc-515, Santa Cruz Biotechnology), rabbit polyclonal anti human cleaved IL-1β (Asp116) (Cell Signaling, Boston, Mass.) or rabbit polyclonal anti murine cathepsin B (R&D Systems, Minneapolis, Minn.).
Cell culture supernatants were precipitated by adding an equal volume of methanol and 0.25 volumes of chloroform, vortexed and centrifuged at 20,000×g for 10 min. The upper phase was discarded and 500 μl of methanol was added to the interphase. This mixture was centrifuged at 20,000×g for 10 min and the protein pellet dried at 55° C., resuspended in Laemmli buffer and boiled at 99° C. for 5 min Samples were separated by SDS-PAGE (15%) and transferred onto nitrocellulose membranes. Blots were incubated with rabbit polyclonal antibody to anti murine caspase-1 p10 (sc-514, Santa Cruz Biotechnology, Santa Cruz, Calif.).

[3] = system: lysosomes of mouse macrophages; test: Lysosomal acidification, proteolysis and rupture in mouse macrophages (LysoSensor Green, DQ ovalbumin, acridine orange, dextran); type: cell-based
Experimental: For evaluation of lysosomal rupture, cells were incubated with 1 μg/m1 acridine orange for 15 min, washed three times and subsequently stimulated as indicated. Lysosomal rupture can be assessed by loss of emission at 600-650 nm using flow cytometry. All flow cytometry experiments were performed on an LSRII cytometer (BD Biosciences). Data were acquired by DIVA (BD Biosciences) and analyzed by FlowJo software (Tree Star Inc., Ashland, Oreg.).
Confocal reflection microscopy was combined with fluorescence microscopy on a Leica SP2 AOBS confocal laser scanning microscope. Reflection was captured by placing the detector channel directly over the wavelength of the selected laser channel for reflection light capture and the AOBS was set to allow 5-15% of laser light into the collection channel. Fluorescence was simultaneously captured by standard confocal imaging techniques.

mouse macrophages = test: IL-1β release from LPS-primed mouse macrophages (bone marrow-derived, B6-MCLs), ELISA; type: cell-based
Experimental: as §2
Immortalized macrophage cell lines were generated using the previously described J2 recombinant retrovirus (carrying v-myc and v-raf/mil oncogenes) (Roberson, S. M. & Walker, W. S. Cellular immunology 116:341-351 (1988)). Briefly, primary bone marrow cells were incubated in L929 conditioned medium for 3-4 days to induce macrophage differentiation. Subsequently, cells were infected with J2 recombinant retrovirus. Cells were maintained in culture for 3-6 months slowly weaning off the percentage of L929 supernatant until cells were growing in the absence of conditioned medium.
Macrophage phenotype was verified by surface marker expression for CD11b and F480 as well as a range of functional parameters, including responsiveness to TLR ligands and bacterial uptake. Macrophage cell lines from wild-type (C57BL6), NALP3- and ASC-deficient mice were generated and are referred to as B6-MCLs, NALP3 -MCLs and ASC-MCLs.
Cell culture supernatants were assayed for IL-1β using ELISA kits from BD Biosciences (Franklin Lakes, NJ) according to the manufacturer's instructions. To measure intracellular IL-1β, cells were washed and subjected to three freeze thaw cycles in assay diluent.
as §1

Molecule: CCCNC(=O)[C@H]1O[C@@H]1C(=O)N[C@H](C(=O)N1CCC[C@H]1C(=O)OC)[C@@H](C)CC [CA-074-Me]
- caspase-1 activation after Aβ stimulation, inhibitor present (caspase-1 [1]; flow cytometry): strongly and dose-dependently inhibited; also recorded: dose-dependently reduced
- caspase-1 activation induced by ATP, inhibitor present (caspase-1 [1]; inhibitor 20 μM): not affected; also recorded: no effect
- IL-1β release after lysosomal rupture, inhibitor present (THP-1 cells): clearly reduced
- Aβ-induced IL-1β release in presence of cathepsin inhibitor (mouse microglia): dose-dependently inhibited
- caspase-1 activation after silica crystal treatment, inhibitor present (caspase-1 [2]; LPS-primed B6-MCLs, CA-074-Me 10 μM (FIG. 5a)): much less caspase-1 activation
- caspase-1 cleavage after crystal-independent disruption of lysosomes, inhibitor present (caspase-1 [2]; mouse macrophages, hypertonic then hypotonic media, CA-074-Me 10 or 2 μM): partially inhibited

Molecule: COC(=O)[C@H](CC(C)C)NC(=O)[C@@H](N)CC(C)C [Leu-Leu-OMe, L-leucyl-L-leucine methyl ester]
- lysosomal rupture / loss of lysosomes caused by the stimulus ([3]; mouse macrophages, acridine orange, DQ ovalbumin, dextran): considerable swelling and rupture of lysosomes
- IL-1β produced in response to the stimulus (mouse macrophages; LPS-primed macrophages from wild-type mice): large quantities of IL-1β

Molecule: O=C(NC(Cc1ccccc1)C(=O)NC(Cc1ccccc1)C(=O)CF)OCc1ccccc1 (stereo not drawn) [Z-FF-FMK] (Cbz-Phe-Phe-CH2F; configuration not given here)
- Aβ-induced IL-1β release in presence of cathepsin inhibitor (mouse microglia): no effect; also recorded: no attenuation

Molecule: CO/C1=C\C(C)=C\[C@@H](C)[C@@H](O)[C@@H](C)C/C(C)=C/C=C/[C@H](OC)[C@@H]([C@@H](C)[C@@H](O)[C@H](C)[C@@]2(O)C[C@@H](O)[C@H](C)[C@@H](C(C)C)O2)OC1=O [bafilomycin A]
- formation of acidic lysosomes (LysoSensor Green) ([3]; mouse macrophages): blocked
- Leu-Leu-OMe-induced lysosomal morphology change and rupture, inhibitor present ([3]; mouse macrophages (data not shown)): much less altered lysosomal morphology and rupture
- appearance of fluorescent DQ ovalbumin (lysosomal proteolytic function) ([3]; mouse macrophages, bafilomycin 250 nM): suppressed
- ATP-induced IL-1β release, inhibitor present (mouse macrophages; LPS-primed B6-MCLs, 6 h): no effect
- silica-mediated IL-1β release, inhibitor present (mouse macrophages; LPS-primed B6-MCLs, 6 h): completely blocked
- release of IL-1b in response to Leu-Leu-OMe, inhibitor present (mouse macrophages; LPS-primed bone marrow-derived macrophages, bafilomycin 250 nM): also inhibited

Molecule: CC(C)CC(=O)N[C@H](C(=O)N[C@H](C(=O)N[C@@H](CC(C)C)[C@@H](O)CC(=O)N[C@@H](C)C(=O)N[C@@H](CC(C)C)[C@@H](O)CC(=O)O)C(C)C)C(C)C [pepstatin A] (Isovaleryl-VV[Sta]A[Sta]-OH)
- Aβ-induced IL-1β release in presence of cathepsin inhibitor (mouse microglia): no effect; also recorded: no attenuation

Molecule: poly(deoxyadenylic-thymidylic) acid sodium salt [poly(dA:dT)]
- caspase-1 cleavage induced by the stimulus (caspase-1 [2]; LPS-primed bone marrow-derived macrophages, wild-type): induced in a dose dependent way
- caspase-1 cleavage (p10) induced by the stimulus (caspase-1 [2]; LPS-primed wild type bone marrow-derived macrophages, Aβ and reverse Aβ 10 μM): induced caspase-1 cleavage (p10)
